Source: patent publication US9023847B2, “Azaheterocyclic compounds” (Merck Patent GmbH, priority 2009, dated 2015)
Like-named read-outs stand apart in the source and are kept apart here.

Biological target: T1, P70S6K (T412E mutant, Millipore) (Homo sapiens, UniProt P23443, T412E)
T1 construct: purchased Millipore
Test: p70S6K enzyme assay
Assay type: biochemical
Procedure: P70S6K inhibitor compounds are diluted and plated in 96 well plates. A reaction mixture including the following components is then added to the compound plate to initiate the enzyme reaction; P70S6K (3 nM, T412E mutant, Millipore) is mixed with 24 μM ATP in an assay buffer containing 100 mM Hepes (pH 7.5), 5 mM MgCl2, 1 mM DTT, 0.015% Brij and 1 μM of the substrate peptide FITC-AHA-AKRRRLSSLRA-OH (derived from the S6 ribosomal protein sequence, FITC=fluorescein isothiocyanate, AHA=6-aminohexanoic acid). The reaction is incubated for 90 min at 25° C., before the addition of 10 mM EDTA to stop the reaction. The proportion of substrate and product (phosphorylated) peptide is analysed on a Caliper Life Sciences Lab Chip 3000, using a pressure of −1.4 psi, and upstream and downstream voltages of −3000 and −700 respectively. Product peaks are resolved before substrate peaks on the resulting chromatograms.

[1] = Table 1, 3 nM P70S6K, 24 μM ATP, 90 min at 25° C., read-out: p70S6K inhibition (IC50)
[2] = class symbol, 3 nM P70S6K, 24 μM ATP, read-out: IC50 (p70S6K)
[3] = numeric bound printed under the example, read-out: IC50 (p70S6K)

T1 sequence (P23443 whole entry T412E): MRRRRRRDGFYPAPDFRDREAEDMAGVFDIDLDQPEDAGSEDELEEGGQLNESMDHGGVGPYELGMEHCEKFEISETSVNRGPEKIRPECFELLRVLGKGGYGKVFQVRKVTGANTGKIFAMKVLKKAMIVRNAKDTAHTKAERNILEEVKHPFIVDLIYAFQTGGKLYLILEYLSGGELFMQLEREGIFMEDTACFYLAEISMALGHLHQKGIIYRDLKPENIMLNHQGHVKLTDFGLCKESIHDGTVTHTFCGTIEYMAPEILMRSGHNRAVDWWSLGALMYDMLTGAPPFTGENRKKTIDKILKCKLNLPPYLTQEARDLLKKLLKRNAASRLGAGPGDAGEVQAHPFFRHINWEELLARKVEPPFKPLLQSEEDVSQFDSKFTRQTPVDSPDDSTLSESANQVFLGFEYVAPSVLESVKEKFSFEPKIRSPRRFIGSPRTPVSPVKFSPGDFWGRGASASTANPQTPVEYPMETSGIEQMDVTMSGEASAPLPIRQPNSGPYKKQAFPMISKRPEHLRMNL

Row | IC50 [2] [nM] | Compound | other results
1 |  | CC(C)(C)OC(=O)N1CCC(NC(=O)c2sccc2Nc2ccnc3[nH]ccc23)C1 (stereo not drawn) [Example 156, 3-{[3-(1H-Pyrrolo[2,3-b]pyridin-4-ylamino)-thiophene-2-carbonyl]-amino}-pyrrolidine-1-carboxylic acid tert-butyl ester] | IC50 [1]: 1000 to 10000 nM
2 | 100 to 1000 | Cc1cccc(CN(CCNC(=O)c2sccc2Nc2ccnc3[nH]ccc23)Cc2cccc(C)c2)c1 [Example 55, 3-(1H-Pyrrolo[2,3-b]pyridin-4-ylamino)-thiophene-2-carboxylic acid {2-[bis-(3-methyl-benzyl)-amino]-ethyl}-amide] | 
3 | 100 to 1000 | Cc1cc(Nc2ccnc3[nH]ccc23)c(C(=O)N[C@H](CO)c2ccccc2)s1 [Example 80, 5-Methyl-3-(1H-pyrrolo[2,3-b]pyridin-4-ylamino)-thiophene-2-carboxylicacid ((S)-2-hydroxy-1-phenyl-ethyl)-amide] | 
4 | < 100 | O=C(NCCc1cccc(Cl)c1)c1sccc1Nc1ccnc2[nH]ccc12 [Example 20, 3-(1H-Pyrrolo[2,3-b]pyridin-4-ylamino)-thiophene-2-carboxylic acid [2-(3-chloro-phenyl)-ethyl]-amide] | 
5 | < 100 | O=C(NCCN(Cc1ccoc1)Cc1ccoc1)c1sccc1Nc1ccnc2[nH]ccc12 [Example 47, 3-(1H-Pyrrolo[2,3-b]pyridin-4-ylamino)-thiophene-2-carboxylic acid [2-(bis-furan-3-ylmethyl-amino)-ethyl]-amide] | 
6 | < 100 | O=C(Nc1cccc(CNC(=O)c2sccc2Nc2ccnc3[nH]ccc23)c1)c1ccnc(N2CCCC2)c1 [Example 161, 2-Pyrrolidin-1-yl-N-[3-({[3-(1H-pyrrolo[2,3-b]pyridin-4-ylamino)-thiophene-2-carbonyl]-amino}-methyl)-phenyl]-isonicotinamide] | 
7 | 100 to 1000 | O=C(NCCNCc1cccnc1)c1sccc1Nc1ccnc2[nH]ccc12 [Example 61, 3-(1H-Pyrrolo[2,3-b]pyridin-4-ylamino)-thiophene-2-carboxylic acid {2-[(pyridin-3-ylmethyl)-amino]-ethyl}-amide] | 
8 | < 100 | O=C(NCCNCc1ccccc1)c1sccc1Nc1ncnc2[nH]ccc12 [Example 183, 3-(7H-Pyrrolo[2,3-d]pyrimidin-4-ylamino)-thiophene-2-carboxylic acid (2-benzylamino-ethyl)-amide] | 
9 | 100 to 1000 | O=C(c1sccc1Nc1ccnc2[nH]ccc12)N1CCCC1 [Example 4, Pyrrolidin-1-yl-[3-(1H-pyrrolo[2,3-b]pyridin-4-ylamino)-thiophen-2-yl]-methanone] | 
10 | < 100 | COc1ccc(NC(=O)c2sccc2Nc2ccnc3[nH]ccc23)cc1 [Example 36, 3-(1H-Pyrrolo[2,3-b]pyridin-4-ylamino)-thiophene-2-carboxylic acid (4-methoxy-phenyl)-amide] | 
11 | < 100 | COc1ccc(C(CN)NC(=O)c2sccc2Nc2ccnc3[nH]ccc23)cc1OC (stereo not drawn) [Example 113, 3-(1H-Pyrrolo[2,3-b]pyridin-4-ylamino)-thiophene-2-carboxylic acid [2-amino-1-(3,4-dimethoxy-phenyl)-ethyl]-amide] | 
12 | < 100 | Cc1ccc(C(CN)NC(=O)c2ccsc2Nc2ccnc3[nH]ccc23)cc1 (stereo not drawn) [Example 126, 2-(1H-Pyrrolo[2,3-b]pyridin-4-ylamino)-thiophene-3-carboxylic acid (2-amino-1-p-tolyl-ethyl)-amide] | 
13 | < 100 | O=C(NCCc1ccc(Br)cc1)c1sccc1Nc1ncnc2[nH]ccc12 [Example 180, 3-(7H-Pyrrolo[2,3-d]pyrimidin-4-ylamino)-thiophene-2-carboxylic acid [2-(4-bromo-phenyl)-ethyl]-amide] | 
14 | < 100 | NC[C@@H](NC(=O)c1ccsc1Nc1ccnc2[nH]ccc12)c1ccccc1 [Example 140, 2-(1H-Pyrrolo[2,3-b]pyridin-4-ylamino)-thiophene-3-carboxylic acid ((S)-2-amino-1-phenyl-ethyl)-amide] | 
15 | < 100 | O=C(N[C@H](CN1C(=O)c2ccccc2C1=O)c1ccccc1)c1sccc1Nc1ccnc2[nH]ccc12 [Example 135, (S)-2-(1H-Pyrrolo[2,3-b]pyridin-4-ylamino)-thiophene-3-carboxylic acid[2-(1,3-dioxo-1,3-dihydro-isoindol-2-yl)-1-phenyl-ethyl]-amide] | 
16 |  | O=C(NCCNCc1ccccc1)c1sc2ccccc2c1Nc1ccnc2[nH]ccc12 [Example 82, 3-(1H-Pyrrolo[2,3-b]pyridin-4-ylamino)-benzo[b]thiophene-2-carboxylic acid (2-benzylamino-ethyl)-amide] | IC50 [3]: > 10000 nM
17 | < 100 | COc1ccc(CCNC(=O)c2sccc2Nc2ccnc3[nH]ccc23)cc1 [Example 28, 3-(1H-Pyrrolo[2,3-b]pyridin-4-ylamino)-thiophene-2-carboxylic acid [2-(4-methoxy-phenyl)-ethyl]-amide] | 

Row | IC50 [2] [nM] | Compound | other results
18 |  | O=C(NC1CCCNC1)c1sccc1Nc1ncnc2[nH]ccc12 (stereo not drawn) [Example 151, 3-(7H-Pyrrolo[2,3-d]pyrimidin-4-ylamino)-thiophene-2-carboxylic acid piperidin-3-ylamide] | IC50 [1]: < 100 nM
19 | < 100 | O=C(Nc1cccc(CNC(=O)c2sccc2Nc2ccnc3[nH]ccc23)c1)c1ccc(F)cc1 [Example 100, 3-(1H-Pyrrolo[2,3-b]pyridin-4-ylamino)-thiophene-2-carboxylic acid 3-(4-fluoro-benzoylamino)-benzylamide] | 
20 | 100 to 1000 | O=C(NCCS(=O)(=O)Cc1ccccc1)c1sccc1Nc1ccnc2[nH]ccc12 [Example 69, 3-(1H-Pyrrolo[2,3-b]pyridin-4-ylamino)-thiophene-2-carboxylic acid (2-phenylmethanesulfonyl-ethyl)-amide] | 
21 | 100 to 1000 | O=C(NC[C@H]1CCCN1)c1sccc1Nc1ccnc2[nH]ccc12 [Example 93, 3-(1H-Pyrrolo[2,3-b]pyridin-4-ylamino)-thiophene-2-carboxylic acid ((R)-1-pyrrolidin-2-ylmethyl)-amide] | 
22 | < 100 | O=C(NCCNCc1ccc(F)cc1)c1sccc1Nc1ccnc2[nH]ccc12 [Example 62, 3-(1H-Pyrrolo[2,3-b]pyridin-4-ylamino)-thiophene-2-carboxylic acid [2-(4-fluoro-benzylamino)-ethyl]-amide] | 
23 | < 100 | NCCNC(=O)c1sccc1Nc1ccnc2[nH]ccc12 [Example 42, 3-(1H-Pyrrolo[2,3-b]pyridin-4-ylamino)-thiophene-2-carboxylic acid (2-amino-ethyl)-amide] | 
24 | < 100 | O=C(Nc1cccc(CNC(=O)c2sccc2Nc2ccnc3[nH]ccc23)c1)c1ccnc(Cl)c1 [Example 129, 2-Chloro-N-[3-({[3-(1H-pyrrolo[2,3-b]pyridin-4-ylamino)-thiophene-2-carbonyl]-amino}-methyl)-phenyl]-isonicotinamide] | 
25 | < 100 | NC(=O)C[C@@H](NC(=O)c1sccc1Nc1ccnc2[nH]ccc12)c1ccccc1 [Example 120, 3-(1H-Pyrrolo[2,3-b]pyridin-4-ylamino)-thiophene-2-carboxylic acid ((R)-2-carbamoyl-1-phenyl-ethyl)-amide] | 
26 | < 100 | O=C(NCCc1cccc(F)c1)c1sccc1Nc1ncnc2[nH]ccc12 [Example 175, 3-(7H-Pyrrolo[2,3-d]pyrimidin-4-ylamino)-thiophene-2-carboxylic acid [2-(3-fluorophenyl)-ethyl]-amide] | 
27 | 100 to 1000 | CC(=O)NCCCCNC(=O)c1sccc1Nc1ccnc2[nH]ccc12 [Example 32, 3-(1H-Pyrrolo[2,3-b]pyridin-4-ylamino)-thiophene-2-carboxylic acid (4-acetylamino-butyl)-amide] | 
28 |  | O=C(N[C@H](CO)c1ccccc1)c1sc2ccccc2c1Nc1ccnc2[nH]ccc12 [Example 83, 3-(1H-Pyrrolo[2,3-b]pyridin-4-ylamino)-benzo[b]thiophene-2-carboxylic acid ((S)-2-hydroxy-1-phenyl-ethyl)-amide] | IC50 [3]: > 10000 nM
29 | < 100 | NCC(NC(=O)c1sccc1Nc1ccnc2[nH]ccc12)c1ccc(C(F)(F)F)cc1 (stereo not drawn) [Example 132, 3-(1H-Pyrrolo[2,3-b]pyridin-4-ylamino)-thiophene-2-carboxylic acid [2-amino-1-(4-trifluoromethyl-phenyl)-ethyl]-amide] | 
30 |  | O=C(NCCc1ccc(Br)cc1)c1sccc1Nc1ncnc2[nH]ccc12 [Example 146, 3-(7H-Pyrrolo[2,3-d]pyrimidin-4-ylamino)-thiophene-2-carboxylic acid [2-(4-bromo-phenyl)-ethyl]-amide] | IC50 [1]: < 100 nM
31 | < 100 | O=C(NCCNCc1ccccc1)c1sccc1Nc1ccnc2[nH]ccc12 [Example 29, 3-(1H-Pyrrolo[2,3-b]pyridin-4-ylamino)-thiophene-2-carboxylic acid (2-benzylamino-ethyl)-amide] | 
32 | < 100 | CN(C)CC(NC(=O)c1sccc1Nc1ccnc2[nH]ccc12)c1cccc(Cl)c1 (stereo not drawn) [Example 159, 3-(1H-Pyrrolo[2,3-b]pyridin-4-ylamino)-thiophene-2-carboxylic acid [1-(3-chloro-phenyl)-2-dimethylamino-ethyl]-amide] | 
33 | < 100 | NC[C@@H](NC(=O)c1sccc1Nc1ccnc2[nH]ccc12)c1cccc(F)c1 [Example 171, 3-(1H-Pyrrolo[2,3-b]pyridin-4-ylamino)-thiophene-2-carboxylic acid [(S)-2-amino-1-(3-fluoro-phenyl)-ethyl]-amide] | 
